One test deals with T1, human GLP-2 receptor (Homo sapiens, UniProt O95838, D470N).
T1 sequence (O95838 1-553 D470N): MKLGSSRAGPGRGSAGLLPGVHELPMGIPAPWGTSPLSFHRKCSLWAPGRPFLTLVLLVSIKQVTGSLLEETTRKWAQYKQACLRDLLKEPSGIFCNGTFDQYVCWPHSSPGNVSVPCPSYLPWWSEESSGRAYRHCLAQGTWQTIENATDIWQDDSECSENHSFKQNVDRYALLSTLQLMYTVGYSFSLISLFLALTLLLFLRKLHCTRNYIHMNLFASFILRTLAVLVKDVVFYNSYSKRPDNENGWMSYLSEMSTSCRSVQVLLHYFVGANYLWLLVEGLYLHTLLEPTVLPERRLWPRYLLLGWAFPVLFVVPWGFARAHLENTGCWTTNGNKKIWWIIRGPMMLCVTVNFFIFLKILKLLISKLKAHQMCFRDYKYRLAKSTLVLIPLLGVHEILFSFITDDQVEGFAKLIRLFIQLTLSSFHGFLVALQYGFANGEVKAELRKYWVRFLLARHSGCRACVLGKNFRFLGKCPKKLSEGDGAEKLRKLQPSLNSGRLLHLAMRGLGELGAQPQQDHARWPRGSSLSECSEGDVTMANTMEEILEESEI
Kind of test: GLP-2 receptor potency assay (cAMP AlphaScreen, HEK293 cells stably expressing GLP-2R). Conditions: cAMP response, HEK293 cells expressing human GLP-2R. It is filed as cell-based. From the text: (§1) One useful in vitro assay for measuring GLP-1 and GLP-2 receptor activity is quantitation of cAMP, i.e. 3′-5′-cyclic adenosine monophosphate, which is a second messenger essential in many biological processes, and one of the most ubiquitous mechanisms for regulating cellular functions. […] Test compounds eliciting an increase in the intracellular level of cAMP can be tested in these assays, and the response normalized relative to a positive and negative control (vehicle) to calculate the EC50 and maximal response from the concentration response curve using the 4-parameter logistic (4PL) nonlinear model for curve fitting.
The hGLP2-R was purchased from MRC-geneservice, Babraham, Cambridge as an Image clone: 5363415 (11924-I17). For subcloning into a mammalian expression vector, primers for subcloning were obtained from DNA-Technology, Risskov, Denmark. The 5′ and 3′ primers used for the PCR reaction include terminal restriction sites for cloning and the context of the 5′ primer is modified to a Kozak consensus without changing the sequence of the product encoded by the ORF. A standard PCR reaction was run using Image clone 5363415 (11924-117) as a template with the above mentioned primers and Polymerase Herculase II Fusion in a total vol. of 50 μl. The generated PCR product was purified using GFX PCR and Gel band purification kit, digested with restriction enzymes and cloned into the mammalian expression vector using Rapid DNA Ligation Kit. Ligation reaction was transformed to XL10 Gold Ultracompetent cells and colonies were picked for DNA production using Endofree Plasmid maxi kit. Subsequent sequence analysis was conducted by MWG Eurofins, Germany.
HEK293 cells were transfected using the Lipofectamine PLUS transfection method. The day before transfection, HEK293 cells were seeded in two T75 flasks at a density of 2×10^6 cells/T75 flask in cell culturing medium without antibiotics. On the day of transfection, cells were washed with 1×DPBS and medium was replaced with Optimem to a volume of 5 mL/T75 flask before addition of Lipofectamine-plasmid complexes were added gently and drop wise to the cells in T75 flasks and replaced with growth medium after 3 hours and again to growth medium supplemented with 500 μg/mL G418 after 24 hours. Following 4 weeks in G418 selection, clones were picked and tested in a functional GLP-2 receptor potency assay as described below.
(§2) The cAMP AlphaScreen assay from Perkin Elmer was used to quantitate the cAMP response to activation of the GLP1 and GLP2 receptor, respectively. […] Data from test compounds eliciting an increase in the intracellular level of cAMP were normalized relative to the positive and negative control (vehicle) to calculate the EC50 and maximal response from the concentration response curve.
Background: In Alpha technology, singlet oxygen from a donor bead excites a nearby acceptor bead.

The next test addresses T2, human GLP-1 receptor (Homo sapiens, UniProt P43220).
T2 construct: expressed in transfected cells
The test is described as follows: GLP-1 receptor potency assay (cAMP AlphaScreen, HEK293 cells stably expressing GLP-1R). It is filed as cell-based. The following applies: cAMP response, HEK293 cells expressing human GLP-1R; read-out: EC50 GLP-1.
From the text: as §1
The cDNA encoding the human glucagon-like peptide 1 receptor (GLP-1R) (primary accession number P43220) was cloned from the cDNA BC112126 (MGC:138331/IMAGE:8327594). The DNA encoding the GLP-1-R was amplified by PCR using primers encoding terminal restriction sites for subcloning. The 5′-end primers additionally encoded a near Kozak consensus sequence to ensure efficient translation. […] The PCR products encoding the GLP-1-R were subcloned into a mammalian expression vector containing a neomycin (G418) resistance marker. The mammalian expression vectors encoding the GLP-1-R were transfected into HEK293 cells by a standard calcium phosphate transfection method. 48 hours post-transfection, cells were seeded for limited dilution cloning and selected with 1 mg/ml G418 in the culture medium. Following 3 weeks in G418 selection clones were picked and tested in a functional GLP-1 receptor potency assay as described below.
as §2

Square brackets hold non-standard residues; d marks the D form. Peptide text beside a SMILES is read from it. Aib = CC(C)(N)C(=O)O

T2 sequence (P43220 24-463): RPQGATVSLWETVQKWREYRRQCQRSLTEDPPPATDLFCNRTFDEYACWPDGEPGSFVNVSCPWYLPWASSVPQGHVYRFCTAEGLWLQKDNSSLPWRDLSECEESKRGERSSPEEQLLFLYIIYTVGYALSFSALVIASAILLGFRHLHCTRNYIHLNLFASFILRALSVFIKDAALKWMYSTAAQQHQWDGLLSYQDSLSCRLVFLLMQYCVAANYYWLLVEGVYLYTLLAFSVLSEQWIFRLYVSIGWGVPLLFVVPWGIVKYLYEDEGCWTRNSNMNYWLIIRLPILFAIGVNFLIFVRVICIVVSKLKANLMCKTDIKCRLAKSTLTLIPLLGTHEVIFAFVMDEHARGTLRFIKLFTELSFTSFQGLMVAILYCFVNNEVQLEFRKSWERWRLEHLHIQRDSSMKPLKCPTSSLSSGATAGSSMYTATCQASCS

As to `CC[C@H](C)[C@H](NC(=O)[C@H](Cc1ccccc1)NC(=O)[C@H](CC(=O)O)NC(=O)[C@H](CCCNC(=N)N)NC(=O)[C@H](C)NC(=O)[C@H](C)NC(=O)[C@H](CCC(N)=O)NC(=O)[C@H](CCC(=O)O)NC(=O)[C@H](CC(=O)O)NC(=O)[C@H](CC(C)C)NC(=O)[C@@H](NC(=O)[C@@H](NC(=O)[C@H](C)NC(=O)[C@H](CC(C)C)NC(=O)[C@H](CCC(=O)O)NC(=O)[C@H](CO)NC(=O)[C@@H](NC(=O)[C@H](Cc1ccccc1)NC(=O)[C@H](CO)NC(=O)CNC(=O)[C@H](CCC(=O)O)NC(=O)C(C)(C)NC(=O)[C@@H](N)Cc1c[nH]cn1)[C@@H](C)O)[C@@H](C)O)[C@@H](C)CC)C(=O)N[C@@H](C)C(=O)N[C@@H](Cc1c[nH]c2ccccc12)C(=O)N[C@@H](CC(C)C)C(=O)N[C@@H](Cc1ccc(O)cc1)C(=O)N[C@@H](C)C(=O)N[C@@H](Cc1c[nH]cn1)C(=O)N[C@@H](CCCCN)C(=O)N[C@H](C(=O)N[C@H](C(=O)N[C@@H](CC(=O)O)C(=O)O)[C@@H](C)O)[C@@H](C)CC` [Compound 28] (H-H[Aib]EGSFTSELATILDEQAARDFIAWLYAHKITD-OH), the EC50 on human GLP-2 receptor was found to be 0.024 nM; at human GLP-1 receptor, 0.11 nM.

Regarding `CC[C@H](C)[C@H](NC(=O)[C@H](CC(C)C)NC(=O)[C@H](Cc1c[nH]c2ccccc12)NC(=O)[C@H](C)NC(=O)[C@@H](NC(=O)[C@H](Cc1ccccc1)NC(=O)[C@H](CC(=O)O)NC(=O)[C@H](CCCNC(=N)N)NC(=O)[C@H](C)NC(=O)[C@H](C)NC(=O)[C@H](CCC(N)=O)NC(=O)[C@H](CCC(=O)O)NC(=O)[C@H](CC(=O)O)NC(=O)[C@H](CC(C)C)NC(=O)[C@@H](NC(=O)[C@@H](NC(=O)[C@H](C)NC(=O)[C@H](CC(C)C)NC(=O)[C@H](CCC(=O)O)NC(=O)[C@H](CO)NC(=O)[C@@H](NC(=O)[C@H](Cc1ccccc1)NC(=O)[C@H](CO)NC(=O)CNC(=O)[C@H](CCC(=O)O)NC(=O)C(C)(C)NC(=O)[C@@H](N)Cc1c[nH]cn1)[C@@H](C)O)[C@@H](C)O)[C@@H](C)CC)[C@@H](C)CC)C(=O)N[C@@H](C)C(=O)N[C@@H](CCC(N)=O)C(=O)N[C@@H](CCCCN)C(=O)N[C@H](C(=O)N[C@H](C(=O)N[C@@H](CC(=O)O)C(=O)O)[C@@H](C)O)[C@@H](C)CC` [Compound 25] (H-H[Aib]EGSFTSELATILDEQAARDFIAWLIAQKITD-OH), the figures for the EC50 on human GLP-2 receptor and at human GLP-1 receptor were 0.062 nM and 0.008 nM, respectively.

As for `CC[C@H](C)[C@H](NC(=O)[C@H](CC(C)C)NC(=O)[C@H](Cc1c[nH]c2ccccc12)NC(=O)[C@H](C)NC(=O)[C@@H](NC(=O)[C@H](Cc1ccccc1)NC(=O)[C@H](CC(=O)O)NC(=O)[C@H](CCCNC(=N)N)NC(=O)[C@H](C)NC(=O)[C@H](C)NC(=O)[C@H](CCC(N)=O)NC(=O)[C@H](CCC(=O)O)NC(=O)[C@H](CC(=O)O)NC(=O)[C@H](CC(C)C)NC(=O)[C@@H](NC(=O)[C@@H](NC(=O)[C@H](C)NC(=O)[C@H](CC(C)C)NC(=O)[C@H](CCC(=O)O)NC(=O)[C@H](CC(=O)O)NC(=O)[C@@H](NC(=O)[C@H](Cc1ccccc1)NC(=O)[C@@H](NC(=O)CNC(=O)[C@H](CCC(=O)O)NC(=O)C(C)(C)NC(=O)[C@@H](N)Cc1c[nH]cn1)[C@@H](C)O)[C@@H](C)O)[C@@H](C)O)[C@@H](C)CC)[C@@H](C)CC)C(=O)N[C@@H](C)C(=O)N[C@@H](Cc1c[nH]cn1)C(=O)N[C@@H](CCCCN)C(=O)N[C@H](C(=O)N[C@H](C(=O)N[C@@H](CC(=O)O)C(=O)O)[C@@H](C)O)[C@@H](C)CC` [Compound 9] (H-H[Aib]EGTFTDELATILDEQAARDFIAWLIAHKITD-OH), the half-maximal effective concentration (EC50) at human GLP-2 receptor turned out to be 0.041 nM; on human GLP-1 receptor it was 0.007 nM.

For the compound `CC[C@H](C)[C@H](NC(=O)[C@H](Cc1ccccc1)NC(=O)[C@H](CC(=O)O)NC(=O)[C@H](CCCNC(=N)N)NC(=O)[C@H](C)NC(=O)[C@H](C)NC(=O)[C@H](CCC(N)=O)NC(=O)[C@H](CCC(=O)O)NC(=O)[C@H](CC(=O)O)NC(=O)[C@H](CC(C)C)NC(=O)[C@@H](NC(=O)[C@@H](NC(=O)[C@H](C)NC(=O)[C@H](CC(C)C)NC(=O)[C@H](CCC(=O)O)NC(=O)[C@H](CO)NC(=O)[C@@H](NC(=O)[C@H](Cc1ccccc1)NC(=O)[C@@H](NC(=O)CNC(=O)[C@H](CCC(=O)O)NC(=O)C(C)(C)NC(=O)[C@@H](N)Cc1c[nH]cn1)[C@@H](C)O)[C@@H](C)O)[C@@H](C)O)[C@@H](C)CC)C(=O)N[C@@H](C)C(=O)N[C@@H](Cc1c[nH]c2ccccc12)C(=O)N[C@@H](CC(C)C)C(=O)N[C@H](C(=O)N[C@@H](CCCNC(=N)N)C(=O)N[C@@H](Cc1c[nH]cn1)C(=O)N[C@@H](CCCCN)C(=O)N[C@H](C(=O)N[C@H](C(=O)N[C@@H](CC(=O)O)C(=O)O)[C@@H](C)O)[C@@H](C)CC)[C@@H](C)CC` [Compound 17] (H-H[Aib]EGTFTSELATILDEQAARDFIAWLIRHKITD-OH), the concentration for a half-maximal effect (EC50) worked out at 0.066 nM on human GLP-2 receptor and 0.006 nM on human GLP-1 receptor.

Take `CC[C@H](C)[C@H](NC(=O)[C@H](CC(C)C)NC(=O)[C@H](Cc1c[nH]c2ccccc12)NC(=O)[C@H](C)NC(=O)[C@@H](NC(=O)[C@H](Cc1ccccc1)NC(=O)[C@H](CC(=O)O)NC(=O)[C@H](CCCNC(=N)N)NC(=O)[C@H](C)NC(=O)[C@H](C)NC(=O)[C@H](CCC(N)=O)NC(=O)[C@H](CCC(=O)O)NC(=O)[C@H](CC(=O)O)NC(=O)[C@H](CC(C)C)NC(=O)[C@@H](NC(=O)[C@@H](NC(=O)[C@H](C)NC(=O)[C@H](CC(C)C)NC(=O)[C@H](CCC(=O)O)NC(=O)[C@H](CO)NC(=O)[C@@H](NC(=O)[C@H](Cc1ccccc1)NC(=O)[C@@H](NC(=O)CNC(=O)[C@H](CCC(=O)O)NC(=O)C(C)(C)NC(=O)[C@@H](N)Cc1c[nH]cn1)[C@@H](C)O)[C@@H](C)O)[C@@H](C)O)[C@@H](C)CC)[C@@H](C)CC)C(=O)N[C@@H](C)C(=O)N[C@@H](Cc1ccc(O)cc1)C(=O)N[C@@H](CCCCN)C(=O)N[C@H](C(=O)N[C@H](C(=O)N[C@@H](CC(=O)O)C(=O)O)[C@@H](C)O)[C@@H](C)CC` [Compound 20] (H-H[Aib]EGTFTSELATILDEQAARDFIAWLIAYKITD-OH): the figures for the EC50 at human GLP-2 receptor and at human GLP-1 receptor were 0.26 nM and 0.012 nM, respectively.

Turning to `CC[C@H](C)[C@H](NC(=O)[C@H](Cc1ccccc1)NC(=O)[C@H](CC(=O)O)NC(=O)[C@H](CCCNC(=N)N)NC(=O)[C@H](C)NC(=O)[C@H](C)NC(=O)[C@H](CCC(N)=O)NC(=O)[C@H](CCC(=O)O)NC(=O)[C@H](CC(=O)O)NC(=O)[C@H](CC(C)C)NC(=O)[C@@H](NC(=O)[C@@H](NC(=O)[C@H](C)NC(=O)[C@H](CC(C)C)NC(=O)[C@H](CCC(=O)O)NC(=O)[C@H](CO)NC(=O)[C@@H](NC(=O)[C@H](Cc1ccccc1)NC(=O)[C@H](CO)NC(=O)CNC(=O)[C@H](CCC(=O)O)NC(=O)C(C)(C)NC(=O)[C@@H](N)Cc1c[nH]cn1)[C@@H](C)O)[C@@H](C)O)[C@@H](C)CC)C(=O)N[C@@H](C)C(=O)N[C@@H](Cc1c[nH]c2ccccc12)C(=O)N[C@@H](CC(C)C)C(=O)N[C@@H](CCC(N)=O)C(=O)N[C@@H](C)C(=O)N[C@@H](Cc1c[nH]cn1)C(=O)N[C@@H](CCCCN)C(=O)N[C@H](C(=O)N[C@H](C(=O)N[C@@H](CC(=O)O)C(=O)O)[C@@H](C)O)[C@@H](C)CC` [Compound 24] (H-H[Aib]EGSFTSELATILDEQAARDFIAWLQAHKITD-OH), the concentration giving a half-maximal response (EC50) came out at 0.049 nM on human GLP-2 receptor and 0.042 nM on human GLP-1 receptor.

Usually EC50 stands for the midpoint of the concentration-response curve.

(Values after patent publication US11130793B2, “GLP-1/GLP-2 dual agonists” (Zealand Pharma A/S, priority 2016, dated 2021).)
